Assay results published in ChEMBL document CHEMBL3108774, “Azaindoles: noncovalent DprE1 inhibitors from scaffold morphing efforts, kill Mycobacterium tuberculosis and are efficacious in vivo” (J Med Chem, 2013).
Values after ≈ are worked out from the molar mass of the structure shown.

Legend:
Type in all cases: functional
[1] = test system: Mycobacterium tuberculosis; assay: Antimicrobial activity against Mycobacterium tuberculosis H37Rv ATCC 27294 harboring DprE1 C387S mutant assessed as growth inhibition after 5 days by microdilution method
[2] = test system: Mycobacterium tuberculosis; assay: Antimicrobial activity against Mycobacterium tuberculosis H37Rv ATCC 27294 harboring DprE1 C387G mutant assessed as growth inhibition after 5 days by microdilution method
[3] = test system: Mycobacterium tuberculosis; assay: Antimicrobial activity against Mycobacterium tuberculosis H37Rv ATCC 27294 harboring DprE1 Y314H mutant assessed as growth inhibition after 5 days by microdilution method
[4] = test system: Mycobacterium tuberculosis; assay: Antimicrobial activity against Mycobacterium tuberculosis H37Rv ATCC 27294 overexpressing DprE1 assessed as growth inhibition after 5 days by microdilution method; details: H37Rv ATCC 27294, 120 h

| SMILES | MIC [1] [µM] | MIC [2] [µM] | MIC [3] [µM] | MIC [4] [µM] |
| --- | --- | --- | --- | --- |
| COc1ncnc(Cn2cc(C(=O)NCCF)c3ncccc32)c1C | 3.12 (≈ 1.07 µg/mL) | 0.78 (≈ 0.268 µg/mL) | >100 | 50 (≈ 17.2 µg/mL) |
| COc1ncnc(Cn2cc(C(=O)NCCF)c3ncc(C)cc32)c1C | 0.39 (≈ 0.139 µg/mL) | 0.39 (≈ 0.139 µg/mL) | >200 | 6.25 (≈ 2.23 µg/mL) |
| COc1ncnc(Cn2cc(C(=O)NCCO)c3ncc(C)cc32)c1C [TBA-7371] | 0.39 (≈ 0.139 µg/mL) | 0.78 (≈ 0.277 µg/mL) | >200 | 100 (≈ 35.5 µg/mL) |
